Source: the supplement of paper PMC9780213

Experiments:
Conditions in all cases: treatment time: 24 h
[1] = system: U2OS; assay: cell count relative to DMSO control (panel A, nuclei/RNA/PMG/mitochondria stain) (fraction of control); higher = more cells (less toxicity)
Description: (§1)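 U2OS-derived cells in 384-well plates were treated for 24 h with a 7-point 2-fold dilution series (top dose 20 µM for most compounds; final max DMSO 1%), then fixed, stained in four marker panels and imaged on a Cellomics ArrayScan. Cell count per treatment (three replicate plates merged) is given as a fraction of DMSO control. Panel A used parental U2OS, panel B U2OS-mOrange2-Peroxisome, panel C1 U2OS-LMNB1-TUBA1B-ACTB (DRAQ5 nuclei).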

[2] = system: U2OS-mOrange2-Peroxisome; assay: cell count relative to DMSO control (panel B, lysosome/peroxisome/lipid stain) (fraction of control); higher = more cells (less toxicity)
Description: as §1

[3] = system: U2OS-LMNB1-TUBA1B-ACTB; assay: cell count relative to DMSO control (panel C1, DRAQ5/ER stain) (fraction of control); higher = more cells (less toxicity)
Description: as §1

SMILES | cell count ([1]; 0.3125 µM) | cell count ([1]; 0.625 µM) | cell count ([1]; 1.25 µM) | cell count ([1]; 2.5 µM) | cell count ([1]; 5 µM) | cell count ([1]; 10 µM) | cell count ([1]; 20 µM) | cell count ([2]; 0.3125 µM) | cell count ([2]; 0.625 µM) | cell count ([2]; 1.25 µM) | cell count ([2]; 2.5 µM) | cell count ([2]; 5 µM) | cell count ([2]; 10 µM) | cell count ([2]; 20 µM) | cell count ([3]; 0.3125 µM) | cell count ([3]; 0.625 µM) | cell count ([3]; 1.25 µM) | cell count ([3]; 2.5 µM) | cell count ([3]; 5 µM) | cell count ([3]; 10 µM) | cell count ([3]; 20 µM) | cell count ([1]; 0.15625 µM) | cell count ([2]; 0.15625 µM) | cell count ([3]; 0.15625 µM) | cell count ([1]; 0.07812 µM) | cell count ([2]; 0.07812 µM) | cell count ([3]; 0.07812 µM)
CCc1c2c(nc3ccc(OC(=O)N4CCC(N5CCCCC5)CC4)cc13)-c1cc3c(c(=O)n1C2)COC(=O)[C@]3(O)CC [irinotecan] | 0.95 | 0.795 | 0.732 | 0.665 | 0.64 | 0.592 | 0.612 | 0.759 | 0.66 | 0.641 | 0.621 | 0.666 | 0.771 | 0.742 | 0.966 | 0.998 | 0.849 | 0.82 | 0.79 | 0.694 | 0.66 | – | – | – | – | – | –
COc1cc([C@@H]2c3cc4c(cc3[C@H](O)[C@H]3COC(=O)[C@@H]23)OCO4)cc(OC)c1OC [picropodophyllin] | 0.88 | 0.899 | 0.978 | 0.94 | 0.929 | 0.701 | – | 0.803 | 1.07 | 0.951 | 1.42 | 1.24 | 1.15 | – | 0.954 | 1.04 | 1.03 | 1.02 | 0.926 | 0.738 | – | 0.97 | 0.97 | 0.924 | – | – | –
O=C1c2c(O)ccc(O)c2C(=O)c2c(NCCNCCO)ccc(NCCNCCO)c21 [mitoxantrone] | 0.662 | 0.503 | 0.411 | 0.455 | 0.447 | – | – | 0.648 | 0.642 | 0.605 | 0.544 | 0.548 | – | – | 0.532 | 0.465 | 0.434 | 0.403 | 0.371 | – | – | 0.887 | 0.953 | 0.693 | 0.956 | 1.16 | 1.05
O=C(N/N=C/c1ccc(O)c(O)c1)c1cc2ccccc2cc1O [dynasore] | 0.981 | 1.01 | 0.925 | 1.02 | 0.867 | 0.807 | 0.638 | 0.779 | 0.85 | 0.742 | 1.03 | 0.645 | 0.497 | 0.501 | 1.02 | 1.05 | 1.06 | 1.12 | 0.953 | 0.966 | 0.826 | – | – | – | – | – | –
Nc1ccn([C@@H]2O[C@H](CO)[C@@H](O)C2(F)F)c(=O)n1 [gemcitabine] | 1.03 | 0.658 | 0.435 | 0.374 | 0.396 | 0.379 | 0.412 | 0.811 | 0.529 | 0.498 | 0.576 | 0.543 | 0.595 | 0.496 | 1.03 | 0.582 | 0.411 | 0.391 | 0.383 | 0.396 | 0.388 | – | – | – | – | – | –
Fc1cc(F)c2c(c1)[C@H]1C=CC[C@H]1C(c1cccnc1)N2 (stereo partly specified) [golgicide-A] | 0.981 | 1 | 0.929 | 1.06 | 1.03 | 0.826 | 0.566 | 0.814 | 0.73 | 0.804 | 0.719 | 0.89 | 0.916 | 0.833 | 0.952 | 1.05 | 0.982 | 1.1 | 1.14 | 1.05 | 0.778 | – | – | – | – | – | –
CC(NC(=O)c1ccccc1/N=C/c1c(O)ccc2ccccc12)c1ccccc1 (stereo unspecified) [sirtinol] | 0.858 | 0.782 | 0.659 | 0.462 | 0.195 | 0.192 | 0.17 | 0.607 | 0.507 | 0.491 | 0.365 | 0.37 | 0.373 | 0.339 | 0.886 | 0.842 | 0.727 | 0.552 | 0.338 | 0.357 | 0.367 | – | – | – | – | – | –
O=c1[nH]c(=O)n([C@H]2C[C@H](O)[C@@H](CO)O2)cc1F [floxuridine] | 0.806 | 0.815 | 0.744 | 0.681 | 0.609 | 0.58 | 0.558 | 1.52 | 1.54 | 1.34 | 1.14 | 1.11 | 0.829 | 1.31 | 1.06 | 1 | 0.979 | 0.737 | 0.792 | 0.929 | 0.892 | – | – | – | – | – | –
CO[C@H]1C[C@@H]2CC[C@@H](C)[C@@](O)(O2)C(=O)C(=O)N2CCCC[C@H]2C(=O)O[C@H]([C@H](C)C[C@@H]2CC[C@@H](OP(C)(C)=O)[C@H](OC)C2)CC(=O)[C@H](C)/C=C(\C)[C@@H](O)[C@@H](OC)C(=O)[C@H](C)C[C@H](C)/C=C/C=C/C=C/1C [deforolimus] | 0.655 | 0.557 | 0.504 | 0.582 | 0.382 | – | – | 0.595 | 0.61 | 0.485 | 0.385 | 0.364 | – | – | 0.625 | 0.644 | 0.471 | 0.438 | 0.373 | – | – | 0.74 | 0.674 | 0.753 | 0.964 | 0.782 | 0.878
COc1ccc(C[C@H](N)C(=O)N[C@H]2[C@@H](O)[C@H](n3cnc4c(N(C)C)ncnc43)O[C@@H]2CO)cc1 [puromycin] | 1.03 | 1.06 | 0.995 | 1.03 | 0.957 | – | – | 1.07 | 1.09 | 1.11 | 1.29 | 1.52 | – | – | 1.11 | 1.13 | 0.957 | 1.02 | 1.02 | – | – | 1.05 | 0.924 | 0.997 | 1.06 | 1.01 | 1.1
Cc1[nH]c2ccccc2c1CCNC(=O)c1cccs1 [CK-636] | 1.06 | 0.971 | 1.01 | 1.01 | 0.977 | 0.961 | 0.865 | 0.793 | 0.764 | 0.737 | 0.756 | 0.783 | 1.04 | 0.977 | 1.16 | 1.06 | 1.09 | 1.04 | 0.908 | 0.887 | 0.858 | – | – | – | – | – | –
O=C(CCCN1CCC(O)(c2ccc(Cl)cc2)CC1)c1ccc(F)cc1 [haloperidol] | 1.02 | 0.985 | 0.893 | 0.939 | 0.979 | 1 | 0.956 | 1.19 | 1.13 | 1.11 | 0.88 | 1.29 | 1.16 | 1.32 | 1.03 | 1.05 | 1.03 | 0.979 | 1.05 | 1.11 | 1.05 | – | – | – | – | – | –
O=C(/C=C\n1cnc(-c2cc(C(F)(F)F)cc(C(F)(F)F)c2)n1)NNc1cnccn1 [selinexor] | 1.01 | 0.994 | 1.03 | 0.971 | 0.9 | 0.779 | 0.502 | 0.905 | 0.657 | 0.758 | 0.705 | 0.676 | 0.598 | 0.484 | 1.1 | 1.06 | 1.12 | 1.15 | 1.07 | 0.834 | 0.693 | – | – | – | – | – | –
N.N.[Cl][Pt][Cl] [cisplatin] | 1.04 | 1.12 | 1.03 | 1.02 | 1.02 | 0.948 | – | 0.977 | 0.858 | 0.908 | 0.967 | 1.05 | 0.956 | – | 1.06 | 1.12 | 1.03 | 0.956 | 0.991 | 1.01 | – | 1.07 | 1.19 | 1.01 | – | – | –
NCCCCC(N)C(=O)NC(CCCCN)C(=O)NC(Cc1c[nH]c2ccccc12)C(=O)NC(Cc1c[nH]c2ccccc12)C(=O)NC(CCCCN)C(=O)NC(CCCCN)C(=O)NC(Cc1c[nH]c2ccccc12)C(=O)NC(C(=O)NC(CCCCN)C(N)=O)C(c1ccccc1)c1ccccc1 (stereo unspecified) [LTX-315] | 1.04 | 0.967 | 1.09 | 0.948 | 0.657 | 0.15 | 0.0373 | 0.785 | 0.756 | 0.817 | 0.766 | 0.885 | 0.508 | 0.0593 | 1.13 | 1.1 | 1.08 | 1.05 | 0.842 | 0.47 | 0.0329 | – | – | – | – | – | –
Cc1c(Cl)cccc1Nc1ccccc1C(=O)O [tolfenamic-acid] | 0.992 | 1.06 | 1.03 | 1.1 | 1.04 | 1.03 | 0.963 | 0.753 | 0.959 | 0.883 | 0.953 | 0.933 | 1.01 | 1.22 | 1.01 | 1.1 | 1.11 | 1.07 | 0.998 | 1.12 | 1.03 | – | – | – | – | – | –
